According to patent publication US11220668B2, “Method for reducing the trisulfide level in proteins” (Merck Patent GmbH, priority 2016, dated 2022):

Tested on: Recombinant CHO cells expressing an IgG1
Test: Fed-batch process with SSC feed; relative quantification of trisulfide linked peptides in IgG by LC-MS peptide mapping
Type: cell-based
Conditions: for mean reduction of trisulfide, LC-HC linked peptides: SSC feed (15 mM in main feed) compared to control condition with cysteine in separate feed; for mean reduction of trisulfide, linkage between cysteine 259 and cysteine 319 in the heavy chain: SSC feed compared to control condition with cysteine in separate feed
Description: Recombinant CHO cells expressing an IgG1 were grown in fully chemically defined basal media (Cellvento® CHO 220) containing 1.5 mM cysteine. At days 3, 5, 7, 10, 14; feed(s) containing either cysteine or S-sulfocysteine were added.
For the control condition, the main feed included vitamins, trace elements and amino acid except cysteine because of the low stability of this amino acid. 150 mM of cysteine was dissolved in a separate feed at pH 11. The main feed was added at 3%, 6%, 6%, 6% and 6% (v/v) whereas cysteine was added at 0.3%, 0.6%, 0.6%, 0.6% and 0.6% on day 3, 5, 7, 10 and 14, respectively.
For the SSC condition, the main feed included the same vitamins, trace elements and amino acids and was further supplemented with 15 mM of S-sulfocysteine di-sodium salt. The main feed was added 3%, 6%, 6%, 6% and 6% (v/v) day 3, 5, 7, 10 and 14 respectively, resulting in the same amount of cysteine source when compared to the control condition. Glucose was monitored on a daily basis for both conditions and adjusted to 6 g/L using a 400 g/L solution.
The process was performed in 1.2 L bioreactors at 37° C., pH 7.0, 50% dissolved oxygen, agitation 140 rpm.
Samples were taken from the bioreactors for the trisulfide analysis on day 13 and day 18. After sampling, cell culture supernatant was centrifuged 5 min at 1500 rpm, the IgG concentration was quantified using an automatic turbidometric method (Cedex bioHT) and frozen for further processing.
IgG were purified from the frozen samples using protein A binding (Phytips method) and were eluted in 200 mM NAH2PO4; 140 mM NaCl and 96 mM Tris HCl and quantified again.
First, the free cysteines in the samples were alkylated by addition of N-ethylmaleiimide (10 mM solution in 0.1 M Na acetate buffer pH 5.0) for 30 min in the dark.
For digestion with Lys-C, 55 μL digestion buffer (8 M urea, 0.1 M Tris, pH 7) and 15 μL Lys-C enzyme (Promega, V1671) were added and the samples were incubated for 4 hours at 37° C. Subsequently, the samples were diluted to 1 M urea by addition of […] and were digested by addition of 12 μL trypsin over night at 37° C. The final antibody concentration was 50 mg/L. For the analysis of the disulfide and trisulfide bonds, the sample was treated with 10% formic acid (4.4 μL) to stop the digestion and analyzed by LC-MS.
The peptide mixture obtained was injected and separated using reversed phase HPLC (RSLC3000 nano LC, Thermo Scientific Dionex, Idstein, Germany). A nanoLC column (Acquity UPLC M-Class HSS T3, 1.8 μm, 75 μm×150 mm, Waters) with a cartridge (PM100, C18, 5 μm, 0.3×5 mm, Thermo Scientific Dionex, Idstein, Germany) was used for preconcentration and separation of the sample. Blank runs and column wash runs were performed within consecutive sample runs. […]

N[C@@H](CSS(=O)(=O)[O-])C(=O)[O-].[Na+].[Na+] [SSC, S-sulfocysteine di-sodium salt]
mean reduction of trisulfide, LC-HC linked peptides (day 13 of fed-batch): 93.3% | mean reduction of trisulfide, linkage between cysteine 259 and cysteine 319 in the heavy chain (day 13 of fed-batch): 46.7% | mean reduction of trisulfide, LC-HC linked peptides (day 18 of fed-batch): 92.4% | mean reduction of trisulfide, linkage between cysteine 259 and cysteine 319 in the heavy chain (day 18 of fed-batch): 25.9%
